Laboratory results taken from PubChem BioAssay (NCI).
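Results reflect a 48-hour exposure of cells in 96-well plates to compound at five concentrations. Definition used: TGI = concentration required for complete inhibition of growth.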

Legend:
Test in all cases: NCI anticancer screen, dose series, 48 h
SNB-75 CNS = tested on: SNB-75 CNS
NCI-H522 lung = tested on: NCI-H522 lung
SR leukemia = tested on: SR leukemia
BT-549 breast = tested on: BT-549 breast
NCI-H226 lung = tested on: NCI-H226 lung
HCT-116 colon = tested on: HCT-116 colon
SK-MEL-5 melanoma = tested on: SK-MEL-5 melanoma
MDA-MB-231 breast = tested on: MDA-MB-231 breast
OVCAR-8 ovarian = tested on: OVCAR-8 ovarian
SK-OV-3 ovarian = tested on: SK-OV-3 ovarian
TK-10 renal = tested on: TK-10 renal
SF-295 CNS = tested on: SF-295 CNS
UACC-62 melanoma = tested on: UACC-62 melanoma
NCI-H460 lung = tested on: NCI-H460 lung
HCT-15 colon = tested on: HCT-15 colon
NCI-H23 lung = tested on: NCI-H23 lung
CAKI-1 renal = tested on: CAKI-1 renal
HCC-2998 colon = tested on: HCC-2998 colon
IGROV1 ovarian = tested on: IGROV1 ovarian
HOP-92 NSCLC = tested on: HOP-92 NSCLC
M14 melanoma = tested on: M14 melanoma
PC-3 prostate = tested on: PC-3 prostate
SF-268 CNS = tested on: SF-268 CNS
MCF7 breast = tested on: MCF7 breast
LOX IMVI melanoma = tested on: LOX IMVI melanoma
OVCAR-5 ovarian = tested on: OVCAR-5 ovarian
T-47D breast = tested on: T-47D breast
SF-539 CNS = tested on: SF-539 CNS
UACC-257 melanoma = tested on: UACC-257 melanoma
UO-31 renal = tested on: UO-31 renal
SNB-19 CNS = tested on: SNB-19 CNS
OVCAR-3 ovarian = tested on: OVCAR-3 ovarian
KM12 colon = tested on: KM12 colon
HL-60(TB) leukemia = tested on: HL-60(TB) leukemia
MOLT-4 leukemia = tested on: MOLT-4 leukemia
U251 CNS = tested on: U251 CNS
MALME-3M melanoma = tested on: MALME-3M melanoma
ACHN renal = tested on: ACHN renal
RXF 393 renal = tested on: RXF 393 renal
DU-145 prostate = tested on: DU-145 prostate
MDA-MB-435 = tested on: MDA-MB-435
A498 renal = tested on: A498 renal
786-0 renal = tested on: 786-0 renal
SN12C renal = tested on: SN12C renal
HS 578T breast = tested on: HS 578T breast
SK-MEL-2 melanoma = tested on: SK-MEL-2 melanoma
COLO 205 colon = tested on: COLO 205 colon
MDA-N = tested on: MDA-N
RPMI-8226 leukemia = tested on: RPMI-8226 leukemia
NCI/ADR-RES ovarian = tested on: NCI/ADR-RES ovarian
SW-620 colon = tested on: SW-620 colon
SK-MEL-28 melanoma = tested on: SK-MEL-28 melanoma
HT29 colon = tested on: HT29 colon
A549 NSCLC = tested on: A549 NSCLC
HOP-62 NSCLC = tested on: HOP-62 NSCLC
OVCAR-4 ovarian = tested on: OVCAR-4 ovarian
EKVX NSCLC = tested on: EKVX NSCLC
K-562 leukemia = tested on: K-562 leukemia
CCRF-CEM leukemia = tested on: CCRF-CEM leukemia

## O=C(Oc1cc(=O)c(OC(=O)c2ccccc2)co1)c1ccccc1
SNB-75 CNS
  TGI: > 100 µM
NCI-H522 lung
  TGI: > 100 µM
SR leukemia
  TGI: > 100 µM
BT-549 breast
  TGI: > 100 µM
NCI-H226 lung
  TGI: > 100 µM
HCT-116 colon
  TGI: > 100 µM
SK-MEL-5 melanoma
  TGI: > 100 µM
MDA-MB-231 breast
  TGI: > 100 µM
OVCAR-8 ovarian
  TGI: > 100 µM
SK-OV-3 ovarian
  TGI: > 100 µM
TK-10 renal
  TGI: > 100 µM
SF-295 CNS
  TGI: > 100 µM
UACC-62 melanoma
  TGI: > 100 µM
NCI-H460 lung
  TGI: > 100 µM
HCT-15 colon
  TGI: > 100 µM
NCI-H23 lung
  TGI: > 100 µM
CAKI-1 renal
  TGI: > 100 µM
HCC-2998 colon
  TGI: > 100 µM
IGROV1 ovarian
  TGI: > 100 µM
HOP-92 NSCLC
  TGI: > 100 µM
M14 melanoma
  TGI: > 100 µM
PC-3 prostate
  TGI: > 100 µM
SF-268 CNS
  TGI: > 100 µM
MCF7 breast
  TGI: > 100 µM
LOX IMVI melanoma
  TGI: > 100 µM
OVCAR-5 ovarian
  TGI: > 100 µM
T-47D breast
  TGI: > 100 µM
SF-539 CNS
  TGI: > 100 µM
UACC-257 melanoma
  TGI: > 100 µM
UO-31 renal
  TGI: > 100 µM
SNB-19 CNS
  TGI: > 100 µM
OVCAR-3 ovarian
  TGI: > 100 µM
KM12 colon
  TGI: > 100 µM
HL-60(TB) leukemia
  TGI: > 100 µM
MOLT-4 leukemia
  TGI: > 100 µM
U251 CNS
  TGI: > 100 µM
MALME-3M melanoma
  TGI: > 100 µM
ACHN renal
  TGI: > 100 µM
RXF 393 renal
  TGI: > 100 µM
DU-145 prostate
  TGI: > 100 µM
MDA-MB-435
  TGI: > 100 µM
A498 renal
  TGI: > 100 µM
786-0 renal
  TGI: > 100 µM
SN12C renal
  TGI: > 100 µM
HS 578T breast
  TGI: > 100 µM
SK-MEL-2 melanoma
  TGI: > 100 µM
COLO 205 colon
  TGI: > 100 µM
MDA-N
  TGI: > 100 µM
RPMI-8226 leukemia
  TGI: > 100 µM
NCI/ADR-RES ovarian
  TGI: > 100 µM
SW-620 colon
  TGI: > 100 µM
SK-MEL-28 melanoma
  TGI: > 100 µM
HT29 colon
  TGI: > 100 µM
A549 NSCLC
  TGI: > 100 µM
HOP-62 NSCLC
  TGI: > 100 µM
OVCAR-4 ovarian
  TGI: > 100 µM

## CCOC(=O)C(Cl)(Cl)/S(=N\S(=O)(=O)c1ccccc1)NC(=O)c1ccccc1 (stereo not drawn)
SNB-75 CNS
  TGI: > 100 µM
SR leukemia
  TGI: > 100 µM
BT-549 breast
  TGI: > 100 µM
NCI-H226 lung
  TGI: > 100 µM
HCT-116 colon
  TGI: > 100 µM
SK-MEL-5 melanoma
  TGI: > 100 µM
MDA-MB-231 breast
  TGI: > 100 µM
OVCAR-8 ovarian
  TGI: > 100 µM
SK-OV-3 ovarian
  TGI: > 100 µM
TK-10 renal
  TGI: > 100 µM
SF-295 CNS
  TGI: > 100 µM
UACC-62 melanoma
  TGI: > 100 µM
NCI-H460 lung
  TGI: > 100 µM
HCT-15 colon
  TGI: > 100 µM
EKVX NSCLC
  TGI: > 100 µM
NCI-H23 lung
  TGI: > 100 µM
IGROV1 ovarian
  TGI: > 100 µM
HOP-92 NSCLC
  TGI: > 100 µM
K-562 leukemia
  TGI: > 100 µM
M14 melanoma
  TGI: > 100 µM
PC-3 prostate
  TGI: > 100 µM
SF-268 CNS
  TGI: > 100 µM
MCF7 breast
  TGI: > 100 µM
LOX IMVI melanoma
  TGI: > 100 µM
OVCAR-5 ovarian
  TGI: > 100 µM
T-47D breast
  TGI: > 100 µM
CCRF-CEM leukemia
  TGI: > 100 µM
SF-539 CNS
  TGI: > 100 µM
UACC-257 melanoma
  TGI: > 100 µM
UO-31 renal
  TGI: > 100 µM
SNB-19 CNS
  TGI: > 100 µM
OVCAR-3 ovarian
  TGI: > 100 µM
KM12 colon
  TGI: > 100 µM
HL-60(TB) leukemia
  TGI: > 100 µM
MOLT-4 leukemia
  TGI: > 100 µM
U251 CNS
  TGI: > 100 µM
MALME-3M melanoma
  TGI: > 100 µM
ACHN renal
  TGI: > 100 µM
RXF 393 renal
  TGI: > 100 µM
DU-145 prostate
  TGI: > 100 µM
MDA-MB-435
  TGI: > 100 µM
A498 renal
  TGI: > 100 µM
786-0 renal
  TGI: > 100 µM
SN12C renal
  TGI: > 100 µM
HS 578T breast
  TGI: > 100 µM
SK-MEL-2 melanoma
  TGI: > 100 µM
COLO 205 colon
  TGI: > 100 µM
MDA-N
  TGI: > 100 µM
RPMI-8226 leukemia
  TGI: > 100 µM
NCI/ADR-RES ovarian
  TGI: > 100 µM
SW-620 colon
  TGI: > 100 µM
SK-MEL-28 melanoma
  TGI: > 100 µM
HT29 colon
  TGI: > 100 µM
A549 NSCLC
  TGI: > 100 µM
HOP-62 NSCLC
  TGI: > 100 µM
OVCAR-4 ovarian
  TGI: > 100 µM

## C(/C=C(\Nc1ccccc1)C12CC3CC(CC(C3)C1)C2)=Nc1ccccc1
SNB-75 CNS
  TGI: 46.4 µM
NCI-H522 lung
  TGI: 24.3 µM
SR leukemia
  TGI: 30.4 µM
BT-549 breast
  TGI: 31.6 µM
NCI-H226 lung
  TGI: 38.5 µM
HCT-116 colon
  TGI: 27 µM
SK-MEL-5 melanoma
  TGI: 28 µM
MDA-MB-231 breast
  TGI: 34.1 µM
OVCAR-8 ovarian
  TGI: 49.8 µM
SK-OV-3 ovarian
  TGI: 46.5 µM
TK-10 renal
  TGI: 45.4 µM
SF-295 CNS
  TGI: 36.5 µM
UACC-62 melanoma
  TGI: 25.7 µM
NCI-H460 lung
  TGI: 62.6 µM
HCT-15 colon
  TGI: 28 µM
EKVX NSCLC
  TGI: 39.4 µM
NCI-H23 lung
  TGI: 36.8 µM
CAKI-1 renal
  TGI: 29.5 µM
HCC-2998 colon
  TGI: 33.2 µM
IGROV1 ovarian
  TGI: 36.5 µM
HOP-92 NSCLC
  TGI: 60.7 µM
K-562 leukemia
  TGI: 35.1 µM
M14 melanoma
  TGI: 32.6 µM
PC-3 prostate
  TGI: 33.1 µM
SF-268 CNS
  TGI: 41.1 µM
MCF7 breast
  TGI: 59.4 µM
LOX IMVI melanoma
  TGI: 28.6 µM
OVCAR-5 ovarian
  TGI: 34.5 µM
T-47D breast
  TGI: 99.6 µM
CCRF-CEM leukemia
  TGI: 8.38 µM
UACC-257 melanoma
  TGI: 73.3 µM
UO-31 renal
  TGI: 29.3 µM
SNB-19 CNS
  TGI: 33.9 µM
OVCAR-3 ovarian
  TGI: 21.1 µM
KM12 colon
  TGI: 35.2 µM
HL-60(TB) leukemia
  TGI: 32.1 µM
MOLT-4 leukemia
  TGI: 22.9 µM
U251 CNS
  TGI: 31.7 µM
MALME-3M melanoma
  TGI: 36.9 µM
ACHN renal
  TGI: 26.4 µM
RXF 393 renal
  TGI: 35.4 µM
DU-145 prostate
  TGI: 56.7 µM
MDA-MB-435
  TGI: 34.3 µM
A498 renal
  TGI: > 100 µM
786-0 renal
  TGI: 29.3 µM
SN12C renal
  TGI: 36.2 µM
HS 578T breast
  TGI: > 100 µM
COLO 205 colon
  TGI: 32.6 µM
MDA-N
  TGI: 30.9 µM
NCI/ADR-RES ovarian
  TGI: 42.5 µM
SW-620 colon
  TGI: 41.7 µM
SK-MEL-28 melanoma
  TGI: 47.1 µM
HT29 colon
  TGI: 27.6 µM
A549 NSCLC
  TGI: 73.3 µM
HOP-62 NSCLC
  TGI: 45.7 µM
OVCAR-4 ovarian
  TGI: 48.8 µM
